Source: patent US11028095B2, “Spiro-lactam and bis-spiro-lactam NMDA receptor modulators and uses thereof” (Aptinyx Inc., priority 2016, dated 2021)
Read-outs that look alike come from different tables or passages of the source.

Tests used:
[1] = Microsomal stability (Human); format: in vitro ADME; settings: human microsomes
Procedure: (§1) Microsomal stability of disclosed compounds was investigated. The following table indicates the percent of compound remaining after 60 minutes.

[2] = biological target: T1, NMDAR2A expressing HEK cell membranes (Homo sapiens, UniProt Q05586+Q12879); assay: NMDAR agonist assay, [3H]MK-801 binding, NMDAR2A; format: biochemical; settings: 50 μM glutamate
T1 construct: expressed in transfected cells; host or cells: HEK cells (membrane extract)
Procedure: (§2) (nonequilibrium conditions).
(§3) The baseline value was determined from the best fit curve of the DPM values modeled using the GraphPad program and the log(agonist) vs. response(three parameters) algorithm was then subtracted from all points in the dataset.

[3] = test system: positive (hedonic) 50-kHz ultrasonic vocalizations (USVs); assay: Positive Emotional Learning (PEL) test; format: in vivo; settings: rat, PO, one hour after administration
Outline: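 Rats received test compound or vehicle (0.5% carboxymethyl cellulose in saline) 1 h before 3 min of experimenter-delivered rough-and-tumble play in alternating 15 s play and no-stimulation blocks. Frequency-modulated 50-kHz USVs during no-stimulation (CS) periods were counted; animals not habituated beforehand.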

[4] = biological target: T2, NMDAR2D expressing HEK cell membranes (Homo sapiens, UniProt O15399+Q05586); assay: NMDAR agonist assay, [3H]MK-801 binding, NMDAR2D; format: biochemical; settings: 50 μM glutamate; for EC50: [3H]MK-801 binding, read-out: NMDAR2D: log EC50 (converted)
T2 construct: expressed in transfected cells; host or cells: HEK cells (membrane extract)
Procedure: as §2, §3

[5] = biological target: T3, NMDAR2D expressing HEK cell membranes (Homo sapiens, UniProt O15399); assay: NMDAR agonist assay, [3H]MK-801 binding, NMDAR2D; format: biochemical; settings: 50 μM glutamate; for EC50: [3H]MK-801 binding, read-out: NMDAR2D: log EC50 (converted)
T3 construct: expressed in transfected cells; host or cells: HEK cells (membrane extract)
Procedure: as §2, §3

[6] = biological target: T4, NMDAR2B expressing HEK cell membranes (Homo sapiens, UniProt Q05586+Q13224); assay: NMDAR agonist assay, [3H]MK-801 binding, NMDAR2B; format: biochemical; settings: 50 μM glutamate; for EC50: [3H]MK-801 binding, read-out: NMDAR2B log EC50 (converted)
T4 construct: expressed in transfected cells; host or cells: HEK cells (membrane extract)
Procedure: as §2, §3

Plasma stability (Human) = format: in vitro ADME
Procedure: (§4) Plasma stability of disclosed compounds was investigated. The following table indicates the percent of compound remaining after 60 minutes.

[7] = Microsomal stability (Rat); format: in vitro ADME; settings: rat microsomes
Procedure: as §1

Plasma stability (Rat) = format: in vitro ADME
Procedure: as §4

[8] = biological target: T5, NMDAR2C expressing HEK cell membranes (Homo sapiens, UniProt Q14957); assay: NMDAR agonist assay, [3H]MK-801 binding, NMDAR2C; format: biochemical; settings: 50 μM glutamate
T5 construct: expressed in transfected cells; host or cells: HEK cells (membrane extract)
Procedure: as §2, §3

[9] = biological target: T6, NMDAR2C expressing HEK cell membranes (Homo sapiens, UniProt Q05586+Q14957); assay: NMDAR agonist assay, [3H]MK-801 binding, NMDAR2C; format: biochemical; settings: 50 μM glutamate; [3H]MK-801 binding; read-out: NMDAR2C: log EC50 (converted)
T6 construct: expressed in transfected cells; host or cells: HEK cells (membrane extract)
Procedure: as §2, §3

[10] = biological target: T7, NMDAR2A expressing HEK cell membranes (Homo sapiens, UniProt Q12879); assay: NMDAR agonist assay, [3H]MK-801 binding, NMDAR2A; format: biochemical; settings: 50 μM glutamate; for EC50: [3H]MK-801 binding, read-out: NMDAR2A: log EC50 (converted)
T7 construct: expressed in transfected cells; host or cells: HEK cells (membrane extract)
Procedure: as §2, §3

[11] = biological target: T8, NMDAR2B expressing HEK cell membranes (Homo sapiens, UniProt Q13224); assay: NMDAR agonist assay, [3H]MK-801 binding, NMDAR2B; format: biochemical; settings: 50 μM glutamate; for EC50: [3H]MK-801 binding, read-out: NMDAR2B log EC50 (converted)
T8 construct: expressed in transfected cells; host or cells: HEK cells (membrane extract)
Procedure: as §2, §3

[12] = Oral pharmacokinetics (plasma, brain, CSF); format: in vivo; set-up: Cmax: unit: ng/mL; settings: Sprague Dawley rats, per os, 10 mg/kg; for Tmax: normal saline
Procedure: In another experiment, Sprague Dawley rats were dosed per os using a normal saline formulation containing 10 mg/kg of the compounds identified in the table below. Plasma, brain, and CSF samples were analyzed at various time points over a 24 hour period. The table below summarizes the results of the oral pharmacokinetics.

IV pharmacokinetics = format: in vivo; set-up: C0: unit: ng/mL; settings: Sprague Dawley rats, 2 mg/kg, normal saline
Procedure: Sprague Dawley rats were dosed intravenously using a normal saline formulation containing 2 mg/kg of the compounds identified in the below table. The table below summarizes the results of the IV pharmacokinetics.

[13] = Sprague Dawley, rat, plasma, po
[14] = Sprague Dawley, rat, in vivo, iv

T8 sequence (Q13224 27-1484, other chains not shown): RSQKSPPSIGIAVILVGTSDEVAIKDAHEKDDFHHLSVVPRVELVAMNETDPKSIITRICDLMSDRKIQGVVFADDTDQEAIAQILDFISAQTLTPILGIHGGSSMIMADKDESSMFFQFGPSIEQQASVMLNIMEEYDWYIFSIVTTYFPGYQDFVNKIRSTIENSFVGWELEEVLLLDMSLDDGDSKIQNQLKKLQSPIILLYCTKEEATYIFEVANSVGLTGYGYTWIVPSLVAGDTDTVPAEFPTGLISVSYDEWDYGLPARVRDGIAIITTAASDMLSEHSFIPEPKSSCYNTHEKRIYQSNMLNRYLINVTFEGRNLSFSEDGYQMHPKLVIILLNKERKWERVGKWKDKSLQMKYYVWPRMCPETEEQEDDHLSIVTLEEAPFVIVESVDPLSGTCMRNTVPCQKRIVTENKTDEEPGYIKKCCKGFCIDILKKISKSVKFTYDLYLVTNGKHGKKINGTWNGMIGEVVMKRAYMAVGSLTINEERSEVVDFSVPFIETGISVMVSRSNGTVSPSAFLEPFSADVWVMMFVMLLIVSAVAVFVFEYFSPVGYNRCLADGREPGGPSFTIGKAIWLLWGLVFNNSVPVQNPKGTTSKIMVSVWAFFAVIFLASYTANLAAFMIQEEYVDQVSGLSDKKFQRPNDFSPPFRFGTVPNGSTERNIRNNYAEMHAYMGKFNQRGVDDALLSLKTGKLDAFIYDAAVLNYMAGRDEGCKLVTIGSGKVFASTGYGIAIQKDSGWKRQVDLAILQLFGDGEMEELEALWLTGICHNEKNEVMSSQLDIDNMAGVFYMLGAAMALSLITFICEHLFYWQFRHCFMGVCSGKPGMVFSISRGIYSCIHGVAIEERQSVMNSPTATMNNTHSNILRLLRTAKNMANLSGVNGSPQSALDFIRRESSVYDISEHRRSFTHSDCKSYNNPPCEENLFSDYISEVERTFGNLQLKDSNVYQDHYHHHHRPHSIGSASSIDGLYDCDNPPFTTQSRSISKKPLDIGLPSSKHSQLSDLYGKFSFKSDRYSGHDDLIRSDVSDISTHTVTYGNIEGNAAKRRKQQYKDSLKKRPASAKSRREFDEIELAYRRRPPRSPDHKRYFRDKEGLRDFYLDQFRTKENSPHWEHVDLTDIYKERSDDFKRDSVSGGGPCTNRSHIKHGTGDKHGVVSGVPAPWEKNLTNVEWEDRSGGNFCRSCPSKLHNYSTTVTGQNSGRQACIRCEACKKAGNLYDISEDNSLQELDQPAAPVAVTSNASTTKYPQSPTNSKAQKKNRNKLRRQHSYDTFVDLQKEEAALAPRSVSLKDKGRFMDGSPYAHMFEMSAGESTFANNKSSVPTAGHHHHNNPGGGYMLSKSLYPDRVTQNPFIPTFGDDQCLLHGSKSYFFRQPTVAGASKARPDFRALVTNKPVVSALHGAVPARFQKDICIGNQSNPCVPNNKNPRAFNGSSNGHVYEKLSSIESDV
T4 sequence (Q13224 27-1484, other chains not shown): as above
T7 sequence (Q12879 23-1464, other chains not shown): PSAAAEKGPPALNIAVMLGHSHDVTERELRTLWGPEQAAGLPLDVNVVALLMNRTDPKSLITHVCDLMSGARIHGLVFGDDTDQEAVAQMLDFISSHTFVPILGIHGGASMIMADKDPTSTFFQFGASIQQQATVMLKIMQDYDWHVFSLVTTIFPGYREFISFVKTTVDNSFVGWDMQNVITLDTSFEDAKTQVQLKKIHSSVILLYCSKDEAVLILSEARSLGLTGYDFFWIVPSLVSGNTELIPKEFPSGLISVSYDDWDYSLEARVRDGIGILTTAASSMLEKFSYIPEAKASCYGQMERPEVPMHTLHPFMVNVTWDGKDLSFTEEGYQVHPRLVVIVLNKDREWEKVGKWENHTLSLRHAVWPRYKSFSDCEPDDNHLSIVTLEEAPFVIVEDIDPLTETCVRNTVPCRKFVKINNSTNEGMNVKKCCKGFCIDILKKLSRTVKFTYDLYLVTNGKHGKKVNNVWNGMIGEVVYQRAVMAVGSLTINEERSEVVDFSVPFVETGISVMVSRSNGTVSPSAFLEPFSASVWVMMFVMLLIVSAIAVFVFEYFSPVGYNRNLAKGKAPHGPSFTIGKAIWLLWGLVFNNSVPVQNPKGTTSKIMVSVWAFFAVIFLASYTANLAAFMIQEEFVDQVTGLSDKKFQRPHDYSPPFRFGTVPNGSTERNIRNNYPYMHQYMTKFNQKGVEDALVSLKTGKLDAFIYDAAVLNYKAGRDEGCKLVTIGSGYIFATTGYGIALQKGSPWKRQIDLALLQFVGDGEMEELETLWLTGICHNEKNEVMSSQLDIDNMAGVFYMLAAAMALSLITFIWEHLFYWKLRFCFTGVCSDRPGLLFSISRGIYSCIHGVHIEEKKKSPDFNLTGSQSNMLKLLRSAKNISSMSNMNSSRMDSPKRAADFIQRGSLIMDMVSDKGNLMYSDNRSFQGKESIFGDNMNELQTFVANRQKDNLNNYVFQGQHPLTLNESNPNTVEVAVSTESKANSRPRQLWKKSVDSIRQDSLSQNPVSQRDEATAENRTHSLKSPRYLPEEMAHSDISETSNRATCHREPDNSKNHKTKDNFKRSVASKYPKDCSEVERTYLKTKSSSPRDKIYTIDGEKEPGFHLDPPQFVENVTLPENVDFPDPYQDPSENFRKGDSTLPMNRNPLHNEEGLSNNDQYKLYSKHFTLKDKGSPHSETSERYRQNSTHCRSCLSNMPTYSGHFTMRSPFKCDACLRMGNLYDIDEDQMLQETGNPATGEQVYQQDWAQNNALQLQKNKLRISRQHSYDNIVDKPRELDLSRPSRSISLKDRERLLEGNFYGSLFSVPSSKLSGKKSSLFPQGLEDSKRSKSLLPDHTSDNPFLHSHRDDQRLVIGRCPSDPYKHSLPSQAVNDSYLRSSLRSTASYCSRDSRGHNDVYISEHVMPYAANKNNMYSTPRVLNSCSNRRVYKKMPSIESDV

O=C1NCC12CCC1(CNC1=O)N2Cc1ccccc1 (single isomer, unassigned) [AC-2, 5-benzyl-2,5,8-triazadispiro[3.1.36.24]undecane-1,7-dione]
Microsomal (Human): percent of compound remaining after 60 minutes [1]: 98% | EC50 ([2]; [3H]MK-801 binding, read-out: NMDAR2A: log EC50 (converted)): < 1 nM | Emax ([2]; relative to 1 mM glycine, read-out: NMDAR2A: % maximal [3H]MK-801 binding relative to 1 mM glycine): < 100% | Max Effect (mean number of 50 kHz USVs per 15 seconds) ([3]; dose 0.001-1 mg/kg): * (*: 6-10.9) | EC50 [4]: < 1 nM | NMDAR2D: % maximal [3H]MK-801 binding relative to 1 mM glycine [5]: + (<100%=+) | EC50 [6]: < 1 nM | Emax ([6]; relative to 1 mM glycine, read-out: NMDAR2B: % maximal [3H]MK-801 binding relative to 1 mM glycine): < 100% | Plasma (Human): percent of compound remaining after 60 minutes (Plasma stability (Human)): 94% | Microsomal (Rat): percent of compound remaining after 60 minutes [7]: 100% | Plasma (Rat): percent of compound remaining after 60 minutes (Plasma stability (Rat)): 94% | NMDAR2C A: % maximal [3H]MK-801 binding relative to 1 mM glycine [8]: + (<100%=+) | EC50 [9]: < 1 nM

O=C1NCC12CCC1(CNC1=O)N2Cc1ccccc1 (single isomer, unassigned) [AC-3, 5-benzyl-2,5,8-triazadispiro[3.1.36.24]undecane-1,7-dione]
Microsomal (Human): percent of compound remaining after 60 minutes [1]: 77% | EC50 [10]: < 1 nM | NMDAR2A: % maximal [3H]MK-801 binding relative to 1 mM glycine [10]: + (<100%=+) | EC50 [4]: > 100 nM | NMDAR2D: % maximal [3H]MK-801 binding relative to 1 mM glycine [5]: − (−=0) | EC50 [11]: < 1 nM | NMDAR2B: % maximal [3H]MK-801 binding relative to 1 mM glycine [11]: + (<100%=+) | Plasma (Human): percent of compound remaining after 60 minutes (Plasma stability (Human)): 92% | Microsomal (Rat): percent of compound remaining after 60 minutes [7]: 83% | Plasma (Rat): percent of compound remaining after 60 minutes (Plasma stability (Rat)): 85% | NMDAR2C A: % maximal [3H]MK-801 binding relative to 1 mM glycine [8]: + (<100%=+)

C[C@@H](O)[C@H](NC(=O)C1CCC2(CNC2=O)N1Cc1ccccc1)C(N)=O (single isomer, unassigned) [AM]
Microsomal (Human): percent of compound remaining after 60 minutes [1]: 95% | CSF Cmax [12]: 0 ng/mL | Brain Cmax [12]: 0 ng/mL | AUC(0-t) [12, 13]: 97.6 ng·h/mL | bioavailability [12, 13]: 2% | Tmax ([12]; Sprague Dawley, rat, plasma, po, read-out: Tmax): 0.33 h | Cmax ([12]; Sprague Dawley, rat, plasma, po, plasma, read-out: Cmax): 34.2 ng/mL | EC50 [10]: < 1 nM | NMDAR2A: % maximal [3H]MK-801 binding relative to 1 mM glycine [10]: + (<100%=+) | Max Effect (mean number of 50 kHz USVs per 15 seconds) ([3]; dose 0.1 mg/kg): * (*: 6-10.9) | EC50 [4]: < 1 nM | Emax ([4]; relative to 1 mM glycine, read-out: NMDAR2D: % maximal [3H]MK-801 binding relative to 1 mM glycine): < 100% | NMDAR2B: % maximal [3H]MK-801 binding relative to 1 mM glycine [11]: + (<100%=+) | EC50 [6]: < 1 nM | Plasma (Human): percent of compound remaining after 60 minutes (Plasma stability (Human)): 88% | Microsomal (Rat): percent of compound remaining after 60 minutes [7]: 99% | Vss (IV pharmacokinetics): 1.21 L/kg | AUC(0-t) (IV pharmacokinetics; [14]): 1000 ng·h/mL | clearance (IV pharmacokinetics; [14]): 33.3 mL/min/kg | half-life (IV pharmacokinetics; [14]): 2.38 h | C0 (IV pharmacokinetics; Sprague Dawley, rat, in vivo, iv, read-out: C0): 3460 ng/mL | Plasma (Rat): percent of compound remaining after 60 minutes (Plasma stability (Rat)): 87% | NMDAR2C A: % maximal [3H]MK-801 binding relative to 1 mM glycine [8]: − (−=0) | EC50 [9]: > 100 nM

C[C@@H](O)[C@H](NC(=O)C1CCC2(CNC2=O)N1Cc1ccccc1)C(N)=O (single isomer, unassigned) [AN]
Microsomal (Human): percent of compound remaining after 60 minutes [1]: 88% | % F [12]: 3% | AUClast [12]: 126.32 ng·h/mL | CSF Cmax [12]: 0 ng/mL | Brain Cmax [12]: 0 ng/mL | Tmax [12]: 0.42 h | Cmax ([12]; plasma): 38.9 ng/mL | EC50 [10]: < 1 nM | NMDAR2A: % maximal [3H]MK-801 binding relative to 1 mM glycine [10]: + (<100%=+) | Max Effect (mean number of 50 kHz USVs per 15 seconds) ([3]; dose 0.1 mg/kg): * (*: 6-10.9) | EC50 [5]: < 1 nM | NMDAR2D: % maximal [3H]MK-801 binding relative to 1 mM glycine [5]: + (<100%=+) | NMDAR2B: % maximal [3H]MK-801 binding relative to 1 mM glycine [11]: + (<100%=+) | EC50 [6]: < 1 nM | Plasma (Human): percent of compound remaining after 60 minutes (Plasma stability (Human)): 88% | Microsomal (Rat): percent of compound remaining after 60 minutes [7]: 87% | AUClast (IV pharmacokinetics): 727.7 ng·h/mL | C0 (IV pharmacokinetics): 3209.4 ng/mL | Cl (IV pharmacokinetics): 45.98 mL/min/kg | T1/2 (IV pharmacokinetics): 4.67 h | Vss (IV pharmacokinetics): 2.45 L/kg | Plasma (Rat): percent of compound remaining after 60 minutes (Plasma stability (Rat)): 87% | NMDAR2C A: % maximal [3H]MK-801 binding relative to 1 mM glycine [8]: + (<100%=+) | EC50 [9]: < 1 nM

CC(C)(C)OC(=O)N1CC2(CNC2=O)CC12CNC2=O (centres unmarked) [AY-1]
EC50 [10]: > 100 nM | NMDAR2A: % maximal [3H]MK-801 binding relative to 1 mM glycine [10]: − (−=0) | EC50 [5]: < 1 nM | NMDAR2D: % maximal [3H]MK-801 binding relative to 1 mM glycine [5]: + (<100%=+) | EC50 [11]: < 1 nM | NMDAR2B: % maximal [3H]MK-801 binding relative to 1 mM glycine [11]: + (<100%=+) | EC50 ([8]; [3H]MK-801 binding, read-out: NMDAR2C: log EC50 (converted)): < 1 nM | NMDAR2C A: % maximal [3H]MK-801 binding relative to 1 mM glycine [8]: + (<100%=+)
